Each structure is given as a SMILES string.

T1 sequence (P48775 whole entry): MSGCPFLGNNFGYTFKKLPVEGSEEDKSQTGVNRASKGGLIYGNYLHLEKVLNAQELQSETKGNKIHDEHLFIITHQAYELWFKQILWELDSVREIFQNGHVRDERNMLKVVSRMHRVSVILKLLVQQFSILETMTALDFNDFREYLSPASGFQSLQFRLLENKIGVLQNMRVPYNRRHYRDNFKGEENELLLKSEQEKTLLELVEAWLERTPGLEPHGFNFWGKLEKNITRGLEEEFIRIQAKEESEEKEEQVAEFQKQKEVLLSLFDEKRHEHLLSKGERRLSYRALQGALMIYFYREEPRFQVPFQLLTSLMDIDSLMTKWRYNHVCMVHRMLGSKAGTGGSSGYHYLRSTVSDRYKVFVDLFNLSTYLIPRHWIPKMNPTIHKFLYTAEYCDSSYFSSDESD

This experiment has as its target T1, TDO2 (Homo sapiens, UniProt P48775).
T1 construct: decreased levels of NFK in SW48 cells (high TDO expressing cells)
Nature of the experiment: TDO2 cell assay (NFK GreenScreen, SW48 cells). Type of experiment: cell-based. The following applies: SW48 cells (high TDO expressing), 200 uM tryptophan, 24 hours; Table 3; read-out: TDO2 Cell Fluor EC50.
Take `CC1(C)CCCC(C2c3ccccc3-c3cncn32)C1O` (single isomer, unassigned) [Example 24h]: the EC50 is 12 µM.
As for `OC1CCCCC1C1c2ccc(F)cc2-c2cncn21` (single isomer, unassigned) [Example 25a], the EC50 is 0.51 µM.
Consider `OC1CCCCC1C1c2ccc(F)cc2-c2cncn21` (single isomer, unassigned) [Example 25b], for which the EC50 was over 25 µM.
As for `OC1CCCCC1C1c2ccc(F)cc2-c2cncn21` (single isomer, unassigned) [Example 25c], the EC50 came to 20 µM.
For the compound `OC1CCCCC1C1c2ccc(F)cc2-c2cncn21` (single isomer, unassigned) [Example 25d], the EC50 was found to be 0.048 µM.
The value for `OC1COCC1C1c2ccccc2-c2cncn21` (single isomer, unassigned) [Example 26a] was over 25 µM; that for `OC1COCC1C1c2ccccc2-c2cncn21` (single isomer, unassigned) [Example 26b] was 0.23 µM.
On to `OC1COCC1C1c2ccccc2-c2cncn21` (single isomer, unassigned) [Example 26c], for which the EC50 is 0.71 µM.
On to `OC1COCC1C1c2ccccc2-c2cncn21` (single isomer, unassigned) [Example 26d], for which the EC50 is over 25 µM.
In the case of `N#CCN1CC[C@@H]([C@H]2c3ccccc3-c3cncn32)[C@H](O)C1` (single isomer, unassigned) [Example 27a], the EC50 is over 25 µM.
As for `N#CCN1CC[C@@H]([C@H]2c3ccccc3-c3cncn32)[C@H](O)C1` (single isomer, unassigned) [Example 27b], the figure is 18 µM; as for `N#CCN1CC[C@@H]([C@@H]2c3ccccc3-c3cncn32)[C@H](O)C1` (single isomer, unassigned) [Example 27d], 3 µM.
Consider `NS(=O)(=O)N1CC(O)C(C2c3ccccc3-c3cncn32)C1` (single isomer, unassigned) [Example 28a], for which the EC50 is over 25 µM.
For the compound `NS(=O)(=O)N1CC(O)C(C2c3ccccc3-c3cncn32)C1` (single isomer, unassigned) [Example 28b], the EC50 was 4.4 µM.
With `NS(=O)(=O)N1CC(O)C(C2c3ccccc3-c3cncn32)C1` (single isomer, unassigned) [Example 28c], the EC50 is over 25 µM.
As to `NS(=O)(=O)N1CC(O)C(C2c3ccccc3-c3cncn32)C1` (single isomer, unassigned) [Example 28d], the 50% effective concentration (EC50) is over 25 µM.
Take `O=c1cccc2n1CCC(C1c3ccccc3-c3cncn31)C2O` (single isomer, unassigned) [Example 29a, 1-hydroxy-2-(5H-imidazo[5,1-a]isoindol-5-yl)-3,4-dihydro-1H-quinolizin-6(2H)-one]: the EC50 was over 25 µM.
As for `O=c1cccc2n1CCC(C1c3ccccc3-c3cncn31)C2O` (single isomer, unassigned) [Example 29b, 1-hydroxy-2-(5H-imidazo[5,1-a]isoindol-5-yl)-3,4-dihydro-1H-quinolizin-6(2H)-one], the figure is 0.67 µM; as for `O=c1cccc2n1CCC(C1c3ccccc3-c3cncn31)C2O` (single isomer, unassigned) [Example 29c, 1-hydroxy-2-(5H-imidazo[5,1-a]isoindol-5-yl)-3,4-dihydro-1H-quinolizin-6(2H)-one], 24 µM.
Consider `O=c1cccc2n1CCC(C1c3ccccc3-c3cncn31)C2O` (single isomer, unassigned) [Example 29d, 1-hydroxy-2-(5H-imidazo[5,1-a]isoindol-5-yl)-3,4-dihydro-1H-quinolizin-6(2H)-one], for which the EC50 turned out to be 5.7 µM.
With `O=c1cccc2n1CCC(C1c3ccccc3-c3cncn31)C2O` (single isomer, unassigned) [Example 29e, 1-hydroxy-2-(5H-imidazo[5,1-a]isoindol-5-yl)-3,4-dihydro-1H-quinolizin-6(2H)-one], the concentration for a half-maximal effect (EC50) came out at 0.44 µM.
Regarding `O=c1cccc2n1CCC(C1c3ccccc3-c3cncn31)C2O` (single isomer, unassigned) [Example 29f, 1-hydroxy-2-(5H-imidazo[5,1-a]isoindol-5-yl)-3,4-dihydro-1H-quinolizin-6(2H)-one], the EC50 is over 25 µM.
The value for `OC1COCC1C1c2ccc(F)cc2-c2cncn21` (single isomer, unassigned) [Example 30a] was 0.26 µM.
On to `OC1COCC1C1c2ccc(F)cc2-c2cncn21` (single isomer, unassigned) [Example 30b], for which the EC50 is 15 µM.
For the compound `OC1COCC1C1c2ccc(F)cc2-c2cncn21` (single isomer, unassigned) [Example 30c], the EC50 stood at 2.1 µM.
For the compound `OC1COCC1C1c2ccc(F)cc2-c2cncn21` (single isomer, unassigned) [Example 30d], the half-maximal effective concentration (EC50) was over 25 µM.
The value for `OC1c2cccnc2CCC1C1c2ccccc2-c2cncn21` (single isomer, unassigned) [Example 31c] was 17 µM; that for `OC1c2cccnc2CCC1C1c2ccccc2-c2cncn21` (single isomer, unassigned) [Example 31d] was over 25 µM.
On to `OC1c2cccnc2CCC1C1c2ccccc2-c2cncn21` (single isomer, unassigned) [Example 31e], for which the EC50 was 1.1 µM.
Take `OC1c2cccnc2CCC1C1c2ccccc2-c2cncn21` (single isomer, unassigned) [Example 31f]: the EC50 was determined as 0.082 µM.
For `N[C@@H]1COC[C@@H]1[C@H]1c2ccccc2-c2cncn21` (single isomer, unassigned) [Example 32c], the half-maximal effective concentration (EC50) was determined as 5.2 µM.
For the compound `OC1COCCC1C1c2ccc(F)cc2-c2cncn21` (single isomer, unassigned) [Example 33a], the EC50 is over 25 µM.
Consider `OC1COCCC1C1c2ccc(F)cc2-c2cncn21` (single isomer, unassigned) [Example 33c], for which the EC50 was 3.5 µM.
For `OC1COCCC1C1c2ccc(F)cc2-c2cncn21` (single isomer, unassigned) [Example 33d], the EC50 is over 25 µM.
For `O[C@@H]1CCOC[C@H]1[C@H]1c2ccc(F)cc2-c2cncn21` (single isomer, unassigned) [Example 34a], the EC50 was found to be 1.8 µM.
Turning to `O[C@@H]1CCOC[C@H]1[C@H]1c2ccc(F)cc2-c2cncn21` (single isomer, unassigned) [Example 34b], the EC50 was over 25 µM.
The value for `CC1(O)CCC1C1c2ccccc2-c2cncn21` (single isomer, unassigned) [Example 35a] was over 25 µM.
As for `CC1(O)CCC1C1c2ccccc2-c2cncn21` (single isomer, unassigned) [Example 35b], the EC50 was 0.45 µM.
As to `CC1(O)CCC1C1c2ccccc2-c2cncn21` (single isomer, unassigned) [Example 35c], the EC50 is over 25 µM.
Regarding `CC1(O)CCC1C1c2ccccc2-c2cncn21` (single isomer, unassigned) [Example 35d], the EC50 was found to be 0.35 µM.
As to `CS(=O)(=O)c1ccc2c(c1)CCC(C1c3ccccc3-c3cncn31)C2O` (single isomer, unassigned) [Example 36a], the EC50 was 1.3 µM.
For the compound `CS(=O)(=O)c1ccc2c(c1)CCC(C1c3ccccc3-c3cncn31)C2O` (single isomer, unassigned) [Example 36b], the EC50 came to 0.058 µM.
For `CS(=O)(=O)c1ccc2c(c1)CCC(C1c3ccccc3-c3cncn31)C2O` (single isomer, unassigned) [Example 36c], the half-maximal effective concentration (EC50) stood at 7.4 µM.
With `CS(=O)(=O)c1ccc2c(c1)CCC(C1c3ccccc3-c3cncn31)C2O` (single isomer, unassigned) [Example 36d], the EC50 was 3.8 µM.
For `CS(=O)(=O)c1ccc2c(c1)CCC(C1c3ccccc3-c3cncn31)C2O` (single isomer, unassigned) [Example 36e], the half-maximal effective concentration (EC50) turned out to be 2.7 µM.
For `CS(=O)(=O)c1ccc2c(c1)CCC(C1c3ccccc3-c3cncn31)C2O` (single isomer, unassigned) [Example 36f], the EC50 is 0.14 µM.
For the compound `CS(=O)(=O)c1ccc2c(c1)CCC(C1c3ccccc3-c3cncn31)C2O` (single isomer, unassigned) [Example 36g], the concentration for a half-maximal effect (EC50) worked out at 19 µM.
The value for `CS(=O)(=O)c1ccc2c(c1)CCC(C1c3ccccc3-c3cncn31)C2O` (single isomer, unassigned) [Example 36h] was 0.98 µM; that for `O=S1(=O)CC(O)C(C2c3ccccc3-c3cncn32)C1` (single isomer, unassigned) [Example 38a] was 16 µM.
`O=S1(=O)CC(O)C(C2c3ccccc3-c3cncn32)C1` (single isomer, unassigned) [Example 38b]: the concentration for a half-maximal effect (EC50) came to 0.15 µM.
Regarding `O=S1(=O)CC(O)C(C2c3ccccc3-c3cncn32)C1` (single isomer, unassigned) [Example 38c], the EC50 was determined as 22 µM.
The value for `O=S1(=O)CC(O)C(C2c3ccccc3-c3cncn32)C1` (single isomer, unassigned) [Example 38d] was 3.8 µM; that for `NS(=O)(=O)N1CC[C@@H]([C@H]2c3ccccc3-c3cncn32)[C@H](O)C1` (single isomer, unassigned) [Example 39b] was 3.7 µM.
As to `NS(=O)(=O)N1CC[C@@H]([C@@H]2c3ccccc3-c3cncn32)[C@H](O)C1` (single isomer, unassigned) [Example 39c], the half-maximal effective concentration (EC50) is over 25 µM.
For the compound `NS(=O)(=O)N1CC[C@@H]([C@@H]2c3ccccc3-c3cncn32)[C@H](O)C1` (single isomer, unassigned) [Example 39d], the EC50 came out at 0.056 µM.
For `CCS(=O)(=O)N1CC(O)C(C2c3ccccc3-c3cncn32)C1` (single isomer, unassigned) [Example 40a], the EC50 came out at 6.4 µM.
As for `CCS(=O)(=O)N1CC(O)C(C2c3ccccc3-c3cncn32)C1` (single isomer, unassigned) [Example 40b], the figure is 16 µM; as for `CCS(=O)(=O)N1CC(O)C(C2c3ccccc3-c3cncn32)C1` (single isomer, unassigned) [Example 40c], over 25 µM.
As for `CCS(=O)(=O)N1CC(O)C(C2c3ccccc3-c3cncn32)C1` (single isomer, unassigned) [Example 40d], the EC50 was over 25 µM.

Values taken from patent US12583858B2 (Genentech, Inc., priority 2015, dated 2026).
